# Assay results reported in PMC13065040 (PLOS One, 2026).
# Assays:
# MMP-2 [1] = conditions: cited from earlier work
# Excerpt: Ctx (Fig 2) is a 36-residue polypeptide from the scorpion Leiurus quinquestriatus. Ctx contains 8 cysteinyl residues, forming 4 disulfide bridges which help to stabilize its three-dimensional structure. […] However, conflicting data on the effects of Ctx on the glioma-specific chloride channel makes it difficu ... || Given the absence of change in melting temperature, the present result cannot confirm the notion that Ctx binds to the three fibronectin regions in the collagen binding domain [33].
# MMP-2 [2] = target: T1, MMP-2 (Homo sapiens, UniProt P08253); experiment: Surface plasmon resonance (SPR), immobilized MMP-2; type: binding; conditions: NTA chip, peptides 500 µM to 3.90 µM, pH 7.4
# T1 construct: ProSpec Bio; Antibodies-Online; Elabscience; Abcam ENZ-769; ABIN7400042; PKSH033450
# T1 sequence (P08253 110-660): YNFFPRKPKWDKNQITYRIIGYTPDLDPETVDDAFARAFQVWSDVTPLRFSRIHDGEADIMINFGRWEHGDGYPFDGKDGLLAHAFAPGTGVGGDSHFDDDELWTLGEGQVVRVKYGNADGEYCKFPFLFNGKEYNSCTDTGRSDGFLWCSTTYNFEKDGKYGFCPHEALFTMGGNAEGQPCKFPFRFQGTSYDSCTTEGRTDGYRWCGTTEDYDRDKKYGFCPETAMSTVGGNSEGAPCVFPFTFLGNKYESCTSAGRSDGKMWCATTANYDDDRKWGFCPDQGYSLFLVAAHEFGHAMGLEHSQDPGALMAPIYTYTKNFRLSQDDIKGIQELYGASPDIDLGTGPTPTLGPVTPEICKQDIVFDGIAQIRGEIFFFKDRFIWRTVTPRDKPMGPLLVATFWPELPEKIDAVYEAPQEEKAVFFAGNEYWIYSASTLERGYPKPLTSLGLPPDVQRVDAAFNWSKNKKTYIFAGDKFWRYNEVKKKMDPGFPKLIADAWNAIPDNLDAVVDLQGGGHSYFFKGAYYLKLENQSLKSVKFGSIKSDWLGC
# Procedure: Surface plasmon resonance (SPR) reagents, plates, and the NTA chip were purchased from GE Healthcare Life Sciences, now Cytiva (Marlborough, MA, USA). Measurements were performed using the Biacore 8000 SPR System (Marlborough, MA. USA). The running buffer used for protein immobilization and peptide binding consisted of 20 mM Tris, 150 mM NaCl, […] and 0.0005% Tween-20, adjusted to pH 7.4. MMP-2 and NRP-1 were immobilized onto the NTA chip at 15 nM and 25 nM concentration, respectively. Peptides were injected over the immobilized proteins using two-fold serial dilutions from 500 µM to 3.90 µM. Three experiments with four replicates of each were performed. The SPR response curves generated from the Biacore Insight Evaluation Software were fitted to a steady-state affinity model to obtain an equilibrium dissociation constant (KD) for each peptide — protein interaction.
substance,measurement,setting,value
Chlorotoxin [Ctx],effect on the enzymatic activity of MMP-2,MMP-2 [1],no statistically significant effect
same,inhibition of MMP-2 enzymatic activity,MMP-2 [1],inhibits MMP-2 enzymatic activity
same,binding to MMP-2 by SPR,MMP-2 [2],did not bind
